Assay: Excipient compatibility study, stressed storage, impurities by HPLC
Type: physicochemical
Description: Compound A Content/Purity using HPLC. A high performance liquid chromatography (HPLC) method utilizing a reverse phase C18 column coupled to an ultraviolet (UV) detector has been developed for the identification, bulk content, assay, CUPMD and impurities analysis of formulations of Compound A. The reverse phase column is equilibrated to 40° C. and the autosampler is set to 5° C. The mobile phases, 10 mM ammonium acetate with 0.1% TFA (mobile phase A) and acetonitrile (mobile phase B) are used in a gradient elution from a ratio of 70:30 (A:B) to 0:100 (A:B), over the course of a 20 minute run time. Detection is by UV at 260 nm and the injection volume is 30 μL. Compound A content in powders are quantified relative to a standard curve. Formula strength can be determined by measuring the amount of Compound A in the bulk powder with HPLC, then dividing the measured amount by the nominal amount of Compound A in the powder. A formula strength of a dry powder disclosed herein may be between about 90% and about 105%, e.g., about 93%, about 94%, about 95%, about 96%, about 97%, about 98%, about 99%, about 100%, about 101%, or about 102%.
The spray dried Compound A formulations were exposed to stressed storage conditions for up to two weeks to assess the potential for excipient-induced degradation. The powders were added to 4 mL vials and exposed to 60° C./30% RH, 70° C./10% RH and 80° C./50% RH. Testing for impurities occurred at t=0, t=3 days, t=7 days and t=14 days for samples held at 60° C./30% RH and 70° C./10% RH and at t=0, t=3 days and t=7 days for samples held at 80° C./50% RH. Control samples including Formulation VI, comprising 50% micronized Compound A, 45% sodium chloride, and 5% polysorbate 80 as well as as-received micronized Compound A were included in an attempt to decouple particle size effects and/or the degradation potential of polysorbate 80.

Total Impurities (60 C./30% RH, 3 days): 0.28 % w/w | Total Known Impurities (60 C./30% RH, 3 days): 0.20 % w/w | Total Unknown Impurities (60 C./30% RH, 3 days): 0.08 % w/w | Total Impurities (60 C./30% RH, 7 days): 0.26 % w/w | Total Known Impurities (60 C./30% RH, 7 days): 0.17 % w/w | Total Unknown Impurities (60 C./30% RH, 7 days): 0.09 % w/w | Total Impurities (60 C./30% RH, 14 days): 0.21 % w/w | Total Known Impurities (60 C./30% RH, 14 days): 0.14 % w/w | Total Unknown Impurities (60 C./30% RH, 14 days): 0.07 % w/w | Total Impurities (70 C./10% RH, 3 days): 0.29 % w/w | Total Known Impurities (70 C./10% RH, 3 days): 0.19 % w/w | Total Unknown Impurities (70 C./10% RH, 3 days): 0.11 % w/w | Total Impurities (70 C./10% RH, 7 days): 0.31 % w/w | Total Known Impurities (70 C./10% RH, 7 days): 0.17 % w/w | Total Unknown Impurities (70 C./10% RH, 7 days): 0.14 % w/w | Total Impurities (70 C./10% RH, 14 days): 0.20 % w/w | Total Known Impurities (70 C./10% RH, 14 days): 0.13 % w/w | Total Unknown Impurities (70 C./10% RH, 14 days): 0.08 % w/w | Total Impurities (80 C./50% RH, 3 days): 0.24 % w/w | Total Known Impurities (80 C./50% RH, 3 days): 0.16 % w/w | Total Unknown Impurities (80 C./50% RH, 3 days): 0.09 % w/w | Total Impurities (80 C./50% RH, 7 days): 0.32 % w/w | Total Known Impurities (80 C./50% RH, 7 days): 0.14 % w/w | Total Unknown Impurities (80 C./50% RH, 7 days): 0.18 % w/w | Total Impurities (time point 0 days): 0.29 % w/w | Total Known Impurities (time point 0 days): 0.22 % w/w | Total Unknown Impurities (time point 0 days): 0.07 % w/w
Structure (SMILES): Cc1ccc(-n2nc(C(C)(C)C)cc2NC(=O)Nc2ccc(Oc3ccnc(Nc4ccccc4)n3)c3ccccc23)cc1 [Compound A, 1-(3-tert-butyl-1-p-tolyl-1H-pyrazol-5-yl)-3-(4-(2-(phenylamino)pyrimidin-4-yloxy)naphthalen-1-yl)urea]

From patent US20250049717A1, “DRY POWDER FORMULATIONS OF NARROW SPECTRUM KINASE INHIBITORS” (Pulmatrix Operating Company, Inc., priority 2021, published 2025)
